# Reference: PMC5288202, “Simultaneous inhibition of Vps34 kinase would enhance PI3Kδ inhibitor cytotoxicity in the B-cell malignancies” (Oncotarget, 2016)
# Where two headings read alike, the source gives them in different places.
# Experiments:
# Type in all cases: cell-based
# HEL = assay: Anti-proliferative effect; conditions: Homo sapiens, AML(FLT3wt), read-out: GI50 HEL
# HT = assay: Anti-proliferative effect; conditions: Homo sapiens, B-cell lymphoma, read-out: GI50 HT
# MOLM-14 = assay: Anti-proliferative effect; conditions: Homo sapiens, MOLM-14; AML (FLT3-ITD)
# CMK = assay: Anti-proliferative effect; conditions: Homo sapiens, read-out: GI50 CMK
# U937 = assay: Anti-proliferative effect; conditions: Homo sapiens, U-937; AML(FLT3wt); read-out: GI50 U937
# pERK in MEC-2 cells = assay: pERK immunoblotting
# Description: The following antibodies were purchased from Cell Signaling Technology: Akt(#4691), Phospho-Akt(Thr308)(#4056), Phospho-Akt(Ser473)(#4060), GAPDH, GSK-3β(#9315), Phospho-GSK-3β(#9323), FoxO1(#2880), Phospho-FoxO1 (Thr24)/FoxO3a(Thr32)/FoxO4(Thr28)(#2599), PRAS40(#2691), Phospho-PRAS40 (Thr246)(#2997), 4E-BP1(#9644), p70 S6K(#2708), Phospho-p70 S6K (Thr389)(#9234). SQSTM1/p62 (D5E2)(#8025), LC3B(#12513). PARP(#9532), Caspase-3(#9665), Phospho-p44/42 MAPK (Erk1/2) (Thr202/Tyr204)(#4377), p44/42 MAPK (Erk1/2) (#4695), Phospho-NF-ΚB P65 (Ser 536)(#3033), NF-ΚB P65(#4764). Lysophosphatidic Acid (#sc-201053, Santa Cruz), Recombinant Human PDGF-BB (#220-BB, R&D), Recombinant Human C5a (Peprotech, #300-70), goat anti-IgM (#5C07615, Meridian). LC3B antibody (#3868, CST). Tubulin antibody (#8035, Santa Cruz). EEA1 antibody (#610456, BD Bioscience) and LAMP1 antibody (#24170, Abcam). Secondary antibodies, Alexa488-anti-mouse, Alexa594-anti-rabbit and Prolong gold mounting medium with DAPI were purchased from Invitrogen.
# MOLM-13 = assay: Anti-proliferative effect; conditions: Homo sapiens, AML(FLT3-ITD)
# MV4-11 [1] = assay: Anti-proliferative effect; conditions: Homo sapiens, MV4-11; AML (FLT3-ITD)
# OCI-AML-3 = assay: Anti-proliferative effect; conditions: Homo sapiens, AML(FLT3wt)
# Ramos = assay: Anti-proliferative effect; conditions: Homo sapiens, Burrkit lymphoma, read-out: GI50 Ramos
# NB4 = assay: Anti-proliferative effect; conditions: Homo sapiens; AML-3 (FLT3wt); read-out: GI50 NB4
# HL-60 = assay: Anti-proliferative effect; conditions: Homo sapiens, HL-60; AML (FLT3 wt); read-out: GI50 HL-60
# SKM-1 = assay: Anti-proliferative effect; conditions: Homo sapiens, SKM-1; AML(FLT3wt); read-out: GI50 SKM-1
# Namalwa [2] = assay: Anti-proliferative effect; conditions: Burrkit lymphoma; read-out: GI50 Namalwa
# OCI-AML-2 [3] = assay: Anti-proliferative effect; conditions: Homo sapiens, OCI-AML2; AML(FLT3wt); read-out: GI50 OCI-AML-2
# NOMO-1 = assay: Anti-proliferative effect; conditions: Homo sapiens, NOMO-1; AML (FLT3wt); read-out: GI50 NOMO-1
# Hs 505T = assay: Anti-proliferative effect; conditions: Homo sapiens; CLL; read-out: GI50 Hs 505T
# MEC-2 [4] = assay: Anti-proliferative effect
# MEC-1 = assay: Anti-proliferative effect; conditions: Homo sapiens, MEC1; CLL
# [5] = system: LC3B puncta in HeLa cells; assay: Immunofluorescence of LC3B puncta; conditions: 16 hours
# Experimental: (§1) HeLa cells were treated with different concentrations of inhibitors for 16 hours. For all immunofluorescence experiments, cells were fixed in -20 °C methanol for 5 minutes or 3.7% (v/v) formaldehyde in phosphate-buffered saline (PBS) for 20 minutes. For LC3B staining, cells were fixed in -20 °C methanol. For EEA1 and LAMP1 staining, cells were fixed in PBS+ formaldehyde. Cells were then permeabilized with TBSTx (0.1% Triton X-100), blocked in AbDil (TBSTx + 2% BSA + 0.1% NaN3), and probed with primary and secondary antibodies diluted in AbDil. Cells were rinsed thoroughly with TBSTx and mounted by anti-fade prolong Gold with DAPI. Images were taken using a Leica DMI4000B fluorescent microscope. All experiments were repeated at least three times). […] Cells were lysed in lysis buffer. P62, LC3B, and GAPDH antibodies were used for immunoblotting.
# OCI-AML-2 [6] = assay: Drug combination study (CellTiter-Glo, 72 hours); conditions: Homo sapiens, OCI-AML2, VPS34-IN-1 1.1 μM, normalized to DMSO, read-out: Relative activity(%) (OCI-AML-2)
# Experimental: (§2) A combination of the PI3K kinase inhibitor CAL101 with the VPS34 inhibitor VPS34-IN-1, was used to treat the cell lines. Cell proliferation were determined after treatment with the compounds for 72 hours. Cell viability was measured using the CellTiter–Glo assay (Promega, USA), data were normalized to control groups (DMSO) and represented by the mean of three independent measurements with a standard error <20%.
# Namalwa [7] = assay: Drug combination study (CellTiter-Glo, 72 hours); conditions: VPS34-IN-1 3.3 μM, normalized to DMSO, read-out: Relative activity(%) (Namalwa)
# Experimental: as §2
# MEC-2 [8] = assay: Drug combination study (CellTiter-Glo, 72 hours); conditions: MEC2, 72 h, read-out: Relative activity(%) (MEC-2)
# Experimental: as §2
# MV4-11 [9] = assay: Drug combination study (CellTiter-Glo, 72 hours); conditions: Homo sapiens, VPS34-IN-1 3.3 μM, normalized to DMSO, read-out: Relative activity(%) (MV4-11)
# Experimental: as §2
# [10] = system: LAMP1 localization in HeLa cells; assay: Immunofluorescence of LAMP1 localization
# Experimental: as §1
GI50 (MOLM-14) [µM],GI50 (U937) [nM],GI50 (MOLM-13) [nM],GI50 (MV4-11 [1]) [nM],GI50 (OCI-AML-3) [nM],GI50 (Ramos) [µM],GI50 (HL-60) [nM],GI50 (SKM-1) [µM],GI50 (OCI-AML-2 [3]) [µM],Structure (SMILES),GI50 (HEL) [µM],GI50 (HT) [nM],GI50 (CMK; AML(FLT3wt)) [µM],effect on pERK (pERK in MEC-2 cells),GI50 (NB4) [µM],GI50 (Namalwa [2]) [µM],GI50 (NOMO-1) [nM],GI50 (Hs 505T) [nM],GI50 (MEC-1) [µM],further results
0.3,1600,150,1400,730,2.1,160,0.3,2,CS(=O)(=O)N1CCN(Cc2cc3nc(-c4cccc5[nH]ncc45)nc(N4CCOCC4)c3s2)CC1 [GDC-0941],> 10,500,0.3,significantly inhibited,1,0.39,1000,,,
7.8,> 10000,> 10000,> 10000,2400,> 10,> 10000,> 10,> 10,CC[C@H](Nc1ncnc2[nH]cnc12)c1nc2cccc(F)c2c(=O)n1-c1ccccc1 [CAL-101],> 10,> 10000,> 10,significantly inhibited,> 10,> 10,> 10000,> 10000,> 10,"GI50 (MEC-2 [4]; MEC2, CLL, read-out: GI50 MEC-2): > 10 µM"

Structure (SMILES),GI50 (MOLM-14) [µM],GI50 (U937) [nM],GI50 (MOLM-13) [nM],GI50 (MV4-11 [1]) [nM],GI50 (OCI-AML-3) [nM],GI50 (Ramos) [µM],GI50 (HL-60) [nM],GI50 (SKM-1) [µM],GI50 (OCI-AML-2 [3]) [µM],GI50 (HEL) [µM],GI50 (HT) [nM],GI50 (CMK; AML(FLT3wt)) [µM],effect on pERK (pERK in MEC-2 cells),GI50 (NB4) [µM],GI50 (Namalwa [2]) [µM],GI50 (NOMO-1) [nM],GI50 (Hs 505T) [nM],GI50 (MEC-1) [µM],further results
CC(C)(O)CNc1ncc(-c2ccnc(Nc3ccnc(Cl)c3)n2)c(CC2CC2)n1 [VPS34-IN-1],7.8,2100,700,2400,3600,3.3,510,6.4,6.6,1.7,1400,,,6.4,8.1,1800,3000,3.7,"GI50 (CMK): 5.9 µM; GI50 (MEC-2 [4]; MEC2, read-out: GI50 MEC-2): 3.1 µM; Effect on LC3B puncta [5]: increased LC3B puncta; activity at 1.1 µM (OCI-AML-2 [6]): 82.8%; activity at 3.3 µM (Namalwa [7]): 77.8%; activity at 10 µM (MEC-2 [8]): 30.4%; activity at 3.3 µM (MV4-11 [9]): 43.6%; Effect on lysosome marker LAMP1 localization [10]: affected"
